{"source": "patent US7910111B2", "about": "“Inhibitors of N-ethylmaleimide sensitive factor” (The Johns Hopkins University, priority 2003, dated 2011)", "key": {"[1]": {"system": "human aortic endothelial cells (HAEC)", "conditions": "HAEC pre-treated with increasing amounts; DEA-NONOate 10 min, DETA-NONOate 16 h, SNAP 6 h, NEM 1 h, L-NAME 16 h", "experimental": "To explore the effect of NO upon granule exocytosis, thrombin induced exocytosis of Weibel-Palade bodies from human aortic endothelial cells (HAEC) which release von Willebrand's Factor (vWF) was studied. HAEC was pre-treated with an NO donor 2-(N,N-diethylamino)-diazenolate-2-oxide (DEA-NONOate) 10 mM or with DEA as a control, stimulated the cells with thrombin 1 U/ml for 1 h, and the amount of vWF released into the media was then measured. […] HAEC was then pre-treated with increasing amounts of various NO donors, including a rapidly releasing NO donor DEA-NONOate for 10 min, a slowly releasing NO donor DETA-NONOate for 16 h, or a nitrosothiol S-nitroso-penicillamine (SNAP) for 6 h; alternatively, cells were treated with NEM for 1 h.\nThe role of endogenous NO in the regulation of Weibel-Palade body exocytosis was then explored. HAEC was pre-treated with L-NAME for 16 h in order to inhibit endogenous NOS, and then the cells were stimulated with 1 U/ml thrombin for 1 h and vWF release was measured. […] HAEC was next pre-treated with vascular endothelial growth factor (VEGF) in order to activate endogenous NOS3. Cells were incubated with 50 ng/ml VEGF or control for 2 h, and then stimulated with thrombin.\nA peptide inhibitor of NSF that crosses cell membranes was designed. This peptide, designated TAT-NSF222, includes the protein transduction domain of HIV TAT (residues 47-57) previously shown to transduce polypeptides into cells (Becker-Hapak et al., 2001), fused to a fragment of NSF (residues 222-243) previously shown to inhibit NSF (Schweizer et al., 1998). […] HAEC were then incubated for 20 min with TAT-NSF222, or with a control peptide TAT-NSF222scr that consisted of the intact TAT domain followed by the amino acid residues of NSF 222-243 in a scrambled order. HAEC were transduced with TAT-NSF peptides, treated with media or thrombin, and the amount of vWF released into the media was measured by ELISA.\nSince NSF plays a general role in vesicle trafficking, permanent inactivation of NSF would slow vesicular trafficking in general. However, local production of NO at the plasma membrane and reversible nitrosylation of NSF could provide spatial regulation of NSF.\nHuman aortic endothelial cells (HAEC) and EGM-2 media were obtained from Clonetics (Walkersville, Md.). HAEC were pre-treated with NO donors, washed, stimulated with 1 U/mil of thrombin, and the amount of vWF released into the media was measured by an ELISA (American Diagnostica, Greenwich, Conn.). HAEC were permeabilized by incubation with 10 U/well of SLO (Sigma) in PBS pH 7.4 for 15 min at 37° C. (Walev et al., 2001). Some cells were incubated with 20-200 μg/ml of antibodies or with 100 μg/ml of recombinant NSF. Cells were then resealed by incubation with EGM-2 media for 4 h at 37° C., washed with EGM-2 media, and stimulated with thrombin as above.\nThe ability of TAT-NSF to affect exocytosis from cells was investigated. Endothelial cells release vWF by exocytosis when stimulated by thrombin. Accordingly, endothelial cells were incubated with increasing amounts of TAT-NSF peptides for 20 min, then treated with 1 U/ml thrombin, and the amount of vWF released into the media was measured by ELISA.\nHuman aortic endothelial cells (HAEC) and EGM-2 media were obtained from Clonetics (Walkersville, Md.). HAEC were pre-treated with TAT-NSF peptides for 20 min, washed, stimulated with 1 U/ml of thrombin, and the amount of vWF released into the media was measured by an ELISA (American Diagnostica, Greenwich, Conn.)."}, "[2]": {"biological_target": "T1, NSF disassembly of the SNARE complex (Cricetulus griseus, UniProt P18708)", "T1 construct": "made in house; host or cells: bacteria (NSF, alpha-SNAP); BL21 cells (GST-SNAREs)", "T1 sequence (P18708 whole entry)": "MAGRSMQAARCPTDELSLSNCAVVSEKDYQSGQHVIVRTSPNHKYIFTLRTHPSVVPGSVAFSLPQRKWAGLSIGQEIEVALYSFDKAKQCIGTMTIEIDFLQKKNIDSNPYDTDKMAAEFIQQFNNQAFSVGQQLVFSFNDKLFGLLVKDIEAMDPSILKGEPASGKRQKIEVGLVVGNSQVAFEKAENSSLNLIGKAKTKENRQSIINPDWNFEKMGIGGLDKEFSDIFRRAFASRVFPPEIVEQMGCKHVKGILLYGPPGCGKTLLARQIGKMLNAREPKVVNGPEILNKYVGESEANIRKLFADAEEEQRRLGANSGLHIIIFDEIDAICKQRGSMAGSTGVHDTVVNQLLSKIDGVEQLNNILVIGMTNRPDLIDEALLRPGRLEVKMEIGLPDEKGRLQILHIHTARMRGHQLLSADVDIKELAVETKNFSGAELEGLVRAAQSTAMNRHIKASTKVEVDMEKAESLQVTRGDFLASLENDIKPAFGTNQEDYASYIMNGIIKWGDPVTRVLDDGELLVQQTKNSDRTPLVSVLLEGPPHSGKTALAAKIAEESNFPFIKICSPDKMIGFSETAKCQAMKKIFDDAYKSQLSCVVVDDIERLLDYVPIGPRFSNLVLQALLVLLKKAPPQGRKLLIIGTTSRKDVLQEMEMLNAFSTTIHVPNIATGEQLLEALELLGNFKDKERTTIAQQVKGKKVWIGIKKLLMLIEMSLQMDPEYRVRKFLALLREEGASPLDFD", "T1 sequence (P81125 whole entry partner)": "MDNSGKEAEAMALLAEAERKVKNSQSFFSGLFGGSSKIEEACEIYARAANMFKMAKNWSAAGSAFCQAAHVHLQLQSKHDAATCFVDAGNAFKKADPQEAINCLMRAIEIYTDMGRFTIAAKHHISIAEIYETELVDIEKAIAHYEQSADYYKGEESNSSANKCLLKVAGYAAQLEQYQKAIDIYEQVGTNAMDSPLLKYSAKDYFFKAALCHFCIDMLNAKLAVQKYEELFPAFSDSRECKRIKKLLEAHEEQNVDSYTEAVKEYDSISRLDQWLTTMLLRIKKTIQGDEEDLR", "T1 sequence (Q12846 whole entry partner)": "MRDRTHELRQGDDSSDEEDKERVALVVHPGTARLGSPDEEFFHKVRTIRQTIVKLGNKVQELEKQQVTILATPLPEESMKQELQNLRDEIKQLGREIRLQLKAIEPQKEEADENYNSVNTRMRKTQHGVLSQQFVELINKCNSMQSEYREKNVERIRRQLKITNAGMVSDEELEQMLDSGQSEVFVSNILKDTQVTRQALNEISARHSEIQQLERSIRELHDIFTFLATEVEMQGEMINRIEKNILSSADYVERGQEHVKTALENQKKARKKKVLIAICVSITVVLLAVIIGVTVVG", "T1 sequence (Q15836 whole entry partner)": "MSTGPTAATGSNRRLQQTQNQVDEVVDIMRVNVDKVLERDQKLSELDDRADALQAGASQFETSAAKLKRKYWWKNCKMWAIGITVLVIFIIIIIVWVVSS", "T1 sequence (O00161 whole entry partner)": "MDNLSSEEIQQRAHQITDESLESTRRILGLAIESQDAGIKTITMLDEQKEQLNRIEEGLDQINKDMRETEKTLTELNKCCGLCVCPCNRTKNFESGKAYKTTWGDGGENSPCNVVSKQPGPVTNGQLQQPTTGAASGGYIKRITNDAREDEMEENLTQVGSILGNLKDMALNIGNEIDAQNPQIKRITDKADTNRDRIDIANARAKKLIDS", "format": "biochemical", "conditions": "ATP", "description": "Accordingly, recombinant NSF was pre-treated with the NO donor DEA-NONOate 1 mM for 10 min. Pre-treated NSF, α-SNAP, and detergent extracts of HAEC membranes were then mixed in the presence of 0.5 mM ATP or ATP-γS. These reactions were then fractionated by sucrose density gradient ultracentrifugation, fractions were collected from the bottom of the tube, and immunoblotted with antibody to syntaxin-4.\nThe effect of NO upon NSF disassembly of purified, recombinant SNARE molecules was next examined. Recombinant (His)6-NSF was pre-treated or not with 1 mM DEA-NONOate for 10 min, and then mixed with and (His)6-a-SNAP and recombinant SNARE fusion polypeptides identified in endothelial cells: GST-syntaxin-4, VAMP-3, and SNAP-23. ATP or ATP-γS was added, the mixture was precipitated with glutathione-sepharose beads, and precipitated proteins were fractionated by SDS-PAGE and immunoblotted with antibody to the NSF tag.\nThe disassembly activity of NSF was measured by a co-precipitation assay (Pevsner et al., 1994). […] This mixture of NSF and SNARE polypeptides was then incubated in binding buffer (4 mM HEPES pH 7.4, 0.1M NaCl, 1 mM EDTA, 3.5 mM CaCl2, 3.5 mM MgCl2, and 0.5% Nonidet P-40) and glutathione-sepharose beads for 1 h at 4° C. with rotation. The beads were washed with binding buffer 4 times, mixed with SDS-PAGE sample buffer, boiled for 3 min, and analyzed by immunoblotting.\nThe effect of the TAT-NSF peptide inhibitors upon the ability of NSF to separate from SNARE complexes was measured. Recombinant NSF was pre-treated with 1 μM TAT-NSF peptides, and recombinant GST-SNARE polypeptides were then added, including syntaxin-4, SNAP-23, and VAMP-3. […]\nThe effect of TAT-NSF peptides on NSF disassembly activity was determined. […]\nTAT-NSF81 (SEQ ID NO: 6) inhibition of NSF disassembly activity was also investigated. […] ATP was added, GST-SNAREs were precipitated with glutathione-sepharose, and the precipitant was analyzed for the co-precipitation of NSF.\nThe disassembly activity of NSF was measured by a co-precipitation assay (Pevsner et al., 1994). […]"}, "recombinant NSF [3]": {"biological_target": "T2, recombinant NSF (Cricetulus griseus, UniProt P18708)", "T2 construct": "RGS-(His)6 (N); made in house; host or cells: bacteria", "T2 sequence (P18708 whole entry)": "as the sequence (P18708 whole entry) above", "experiment": "S-nitrosylation of recombinant NSF (Saville reaction)", "format": "biochemical", "conditions": "1 mM DEA-NONOate", "experimental": "The number of cysteine residues that are nitrosylated by exogenous NO was next measured. Recombinant NSF was exposed to increasing amounts of DEA-NONOate, and then the Saville reaction was used to measure the number of nitrosocysteine residues per molecule of NSF. NO nitrosylates NSF in a dose-dependent manner (FIG. 4C). At 1 mM DEA-NONOate, approximately 3 cysteine residues are modified by NO per each molecule of NSF.\nMeasurement of cysteine residues nitrosylated in vitro was performed by the Saville and Griess assays (Saura et al., 1999). Measurement of NSF nitrosylated in cultured cells was performed by immunoprecipitation with antibody to nitrosocysteine, followed by immunoblotting with antibody to NSF. Measurement of cysteine residues nitrosylated in vivo was performed as previously (Jaffrey et al., 2001; Jaffrey and Snyder, 2001)."}, "recombinant NSF [4]": {"biological_target": "T2, recombinant NSF", "experiment": "NSF ATPase assay (coupled colorimetric assay)", "format": "biochemical", "conditions": "recombinant NSF", "experimental": "The effect of NO upon NSF activity was next explored, since NO inhibits Weibel-Palade body exocytosis, and since NSF regulates Weibel-Palade body exocytosis. The effect of NO upon the ATPase activity of NSF was first examined. DEA-NONOate was added to recombinant NSF, and the ATPase activity of NSF was measured.\n(§1) The ATPase activity of NSF was measured by a coupled assay, in which ATP utilization is linked to the pyruvate kinase reaction, which generates pyruvate, which in turn is measured continuously with lactate dehydrogenase (Huang and Hackney, 1994). Recombinant NSF (0.2 μg/μl) was pre-treated with buffer or DEA or DEA-NONOate or NEM for 10 min at 22° C. ATPase reaction buffer (100 mM HEPES buffer, pH 7.0, 100 mM KCl, 10 mM MgCl2, 5 mM CaCl2, 10 mM ATP, 5 mM phosphoenol pyruvate, 50 U lactate dehydrogenase, and 50 U pyruvate kinase) was added to the mixture, followed by 10 μl of NADH (2 mg/ml in 1% sodium bicarbonate). The mixture was incubated for 10 min at 22° C., and the absorbance was measured at 340 nm.\nThe effect of the TAT-NSF peptide inhibitors upon the ability of NSF to hydrolyze ATP was measured. 10 μM TAT-NSF peptides was added to recombinant NSF, and the hydrolysis of ATP was measured. All 5 TAT-NSF peptides inhibited NSF ATPase activity (FIG. 8A). […] The effects of TAT-NSF81 (SEQ ID NO: 6) upon NSF were further defined. TAT-NSF81 (SEQ ID NO: 6) inhibits NSF ATPase activity in a dose-dependent manner with an IC50% between 1-10 μM (FIG. 8B).\nas §1, with “TAT-NSF peptides” for “DEA or DEA-NONOate or NEM”"}}, "data": [{"smiles": "CCN(CC)[N+]([O-])=NO", "note": "[DEA-NONOate, 2-(N,N-diethylamino)-diazenolate-2-oxide]", "values": [{"measurement": "effect on thrombin induced vWF release, dose response", "setting": "[1]", "value": "inhibits thrombin induced vWF release"}, {"measurement": "effect on NSF disassembly of 20S SNARE complex from endothelial cell extracts", "setting": "[2]; NSF pre-treated with 1 mM for 10 min, HAEC membrane extracts", "value": "inhibits the ability of NSF to disassemble a 20S SNARE complex"}, {"measurement": "effect on NSF disassembly activity", "setting": "[2]; recombinant NSF, α-SNAP, GST-SNAREs, TAT-NSF peptides 1 μM in Example 2", "value": "inhibits NSF disassembly activity"}, {"measurement": "cysteine residues modified by NO per molecule of NSF", "setting": "recombinant NSF [3]", "value": "approximately 3"}, {"measurement": "effect on NSF ATPase activity", "setting": "recombinant NSF [4]", "value": "does not significantly inhibit NSF hydrolysis of ATP"}]}]}
